Several values for one entry are separate records, joined by “and”; a condition that tells them apart may be missing. Equal entries are not always repeated. Entries after “also recorded” stand apart in the source; their conditions may differ. Where two headings read alike, the source gives them in different places.
Experiments:
[1] = Solubility under the assay conditions; assay type: physicochemical; settings: HDAC, BCL‐2 and cell assays; data not reliable, not reported
[2] = tested on: MV4;11 BCL‐2 over‐expressing (OE) cells; test: alamarBlue cell metabolism/viability assay, MV4;11 BCL‐2 OE; assay type: cell-based; settings: Homo sapiens
Description: (§1) As described previously, MOLM14 and MV4;11 cell lines (both human AML cell lines harboring both mixed‐lineage‐leukemia (KMT2A) rearrangement and FLT3‐ITD mutations) were obtained from DSMZ (Branschweig, DEU) and ATCC (Manassas, VA), respectively (Goodis et al. [2024]; Moses et al. [2021]); MV4;11 BCL‐2 over‐expressing (OE) cells were generated via lentiviral transduction as described previously (Empty Vector AddGene #227688; BLC‐2 OE AddGene #227690) (Goodis et al. [2024]).
(§2) Cell lines were cultured in RPMI 1640 media (Cellgro, # MDT‐10‐040‐CV) containing 10% fetal bovine serum (Gemini BioProducts #100‐106) and passaged twice per week to maintain cultures in log‐phase‐growth. Upon receipt or derivation, cell lines were expanded and multiple aliquots cryopreserved in DMSO‐containing medium in the vapor phase of liquid nitrogen. Cells were genetically authenticated and confirmed to be mycoplasma‐negative before cryopreservation. Cells from a given cryopreserved aliquot were cultured for no more than 3–4 months.
(§3) AnnV/7AAD assays were assessed by flow cytometry and analyzed using FlowLogic software v8.7.
(§4) Our dual inhibitors were next evaluated in an alamarBlue^TM cell metabolism/viability assay against 3 human AML cell lines: MOLM14, MV4;11, and MV4;11 BCL‐2 overexpressing (OE). […] However, pleasingly, several of our top compounds based on the cell‐free assay results also performed well in the AML cell‐based metabolism/viability assays.

MV4;11 cells [3] = test: alamarBlue cell metabolism/viability assay, MV4;11; assay type: cell-based, human; settings: for IC50: at least triplicate, errors are SEMs
Description: as §1, §2, §3, §4

MV4;11 cells [4] = test: Annexin V/7AAD apoptosis/death assay by flow cytometry; assay type: cell-based, human; settings: 200 nM; for viability at 0.2 µM: Homo sapiens, 48 h, MV4;11, in Figure 2, read-out: viable cells (AnnV‐/7AAD‐), lower left quadrant
Experimental: as §3
Figure 2 Apoptotic cell death of MV4;11 AML cells. […] As a negative control, an equi‐volume of DMSO‐treated sample was also assessed. Flow cytometric dot plots of 200 nM‐treated MV4;11 cells stained with Annexin‐V and 7AAD depict the gating strategy used to delineate viable cells (AnnV‐/7AAD‐), early apoptotic cells (AnnV+/7AAD‐), and late apoptotic cells (AnnV+/7AAD +).

HDAC1 = target: T1, HDAC1 (Homo sapiens, UniProt Q13547); test: HDAC1 fluorogenic assay (BPS Bioscience 50061, run by Nanosyn); assay type: biochemical; settings: for IC50: cell‐free fluorogenic assay, duplicate, errors are SEMs
T1 construct: purchased BPS Bioscience (assay run by Nanosyn) 50061
T1 sequence (Q13547 whole entry): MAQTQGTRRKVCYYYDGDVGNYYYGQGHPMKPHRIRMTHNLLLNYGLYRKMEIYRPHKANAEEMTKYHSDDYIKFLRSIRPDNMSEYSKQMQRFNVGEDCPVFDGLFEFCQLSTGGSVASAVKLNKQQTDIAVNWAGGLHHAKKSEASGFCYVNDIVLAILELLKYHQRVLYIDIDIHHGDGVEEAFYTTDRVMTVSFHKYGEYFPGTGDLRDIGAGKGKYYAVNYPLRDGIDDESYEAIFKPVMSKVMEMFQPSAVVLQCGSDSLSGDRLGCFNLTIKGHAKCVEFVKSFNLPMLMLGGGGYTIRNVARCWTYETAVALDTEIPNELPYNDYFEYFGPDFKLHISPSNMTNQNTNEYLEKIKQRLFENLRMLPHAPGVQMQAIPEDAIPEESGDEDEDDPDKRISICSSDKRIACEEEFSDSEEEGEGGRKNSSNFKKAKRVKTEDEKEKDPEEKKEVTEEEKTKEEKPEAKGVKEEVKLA

BCL‐2 = target: T2, BCL‐2 (Homo sapiens, UniProt P10415); test: BCL‐2 TR‐FRET assay (BPS Bioscience 50222, run by Nanosyn); assay type: binding; settings: cell‐free TR‐FRET assay, duplicate, errors are SEMs
T2 construct: purchased BPS Bioscience (assay run by Nanosyn) 50222
T2 sequence (P10415 whole entry): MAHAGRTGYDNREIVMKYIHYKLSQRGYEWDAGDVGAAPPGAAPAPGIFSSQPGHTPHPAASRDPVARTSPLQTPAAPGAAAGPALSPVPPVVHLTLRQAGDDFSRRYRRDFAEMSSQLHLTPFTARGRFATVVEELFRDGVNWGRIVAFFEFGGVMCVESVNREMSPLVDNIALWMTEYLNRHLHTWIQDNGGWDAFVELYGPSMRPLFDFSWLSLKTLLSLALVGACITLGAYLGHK

HDAC6 = target: T3, HDAC6 (Homo sapiens, UniProt Q9UBN7); test: HDAC6 fluorogenic assay (BPS Bioscience 50076, run by Nanosyn); settings: for selectivity for HDAC6 over HDAC1 (HDAC6/1 selectivity): ratio of IC50 values
T3 sequence (Q9UBN7 1-1215): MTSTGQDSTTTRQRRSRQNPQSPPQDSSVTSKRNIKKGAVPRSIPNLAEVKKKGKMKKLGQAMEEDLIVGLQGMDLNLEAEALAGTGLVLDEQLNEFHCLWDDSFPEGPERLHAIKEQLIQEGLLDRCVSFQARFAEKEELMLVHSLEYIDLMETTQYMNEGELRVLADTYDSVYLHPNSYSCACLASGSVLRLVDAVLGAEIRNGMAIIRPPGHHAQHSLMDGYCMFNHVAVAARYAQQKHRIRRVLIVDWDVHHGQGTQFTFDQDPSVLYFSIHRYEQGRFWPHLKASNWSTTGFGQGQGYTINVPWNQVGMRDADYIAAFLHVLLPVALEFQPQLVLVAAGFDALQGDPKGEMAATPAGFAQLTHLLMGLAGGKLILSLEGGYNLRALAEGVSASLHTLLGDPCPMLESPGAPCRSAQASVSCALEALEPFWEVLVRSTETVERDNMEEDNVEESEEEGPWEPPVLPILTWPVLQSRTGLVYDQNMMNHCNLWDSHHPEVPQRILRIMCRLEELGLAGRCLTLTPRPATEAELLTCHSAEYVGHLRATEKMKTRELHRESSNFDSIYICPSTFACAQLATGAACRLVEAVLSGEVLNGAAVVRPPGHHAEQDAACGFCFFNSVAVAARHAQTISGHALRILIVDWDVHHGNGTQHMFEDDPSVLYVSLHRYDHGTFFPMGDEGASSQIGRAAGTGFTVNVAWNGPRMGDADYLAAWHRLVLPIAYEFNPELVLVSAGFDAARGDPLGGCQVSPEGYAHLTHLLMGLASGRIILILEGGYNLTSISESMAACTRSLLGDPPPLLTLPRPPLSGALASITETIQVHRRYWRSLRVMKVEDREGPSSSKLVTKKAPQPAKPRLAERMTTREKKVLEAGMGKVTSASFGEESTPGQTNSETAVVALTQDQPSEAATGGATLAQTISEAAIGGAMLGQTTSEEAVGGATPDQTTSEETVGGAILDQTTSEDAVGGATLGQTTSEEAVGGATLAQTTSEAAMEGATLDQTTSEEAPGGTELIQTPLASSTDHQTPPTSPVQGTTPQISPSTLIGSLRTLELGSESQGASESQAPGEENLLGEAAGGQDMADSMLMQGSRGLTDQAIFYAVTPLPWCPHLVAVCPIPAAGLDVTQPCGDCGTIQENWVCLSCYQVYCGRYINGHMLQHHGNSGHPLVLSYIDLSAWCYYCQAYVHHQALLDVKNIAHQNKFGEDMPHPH

MOLM14 cells = test: alamarBlue cell metabolism/viability assay, MOLM14; assay type: cell-based; settings: Homo sapiens
Description: as §1, §2, §3, §4

[5] = MV4-11, alamarBlue, at least triplicate, errors are SEMs, read-out: IC50 MV4;11 BCL‐2 OE
[6] = Homo sapiens, MV4-11, alamarBlue
[7] = MOLM-14, at least triplicate, errors are SEMs, read-out: IC50 MOLM‐14

| SMILES | IC50 [2, 5] | IC50 (MV4;11 cells [3]; [6]) | IC50 (HDAC1) | IC50 (BCL‐2) | IC50 (HDAC6) | selectivity for HDAC6 over HDAC1 (HDAC6/1 selectivity) (HDAC6) | IC50 (MOLM14 cells; [7]) | selectivity for HDAC1 over HDAC6 (HDAC1; ratio of IC50 values) | IC50 ([2]; MV4-11, alamarBlue, read-out: IC50 MV4;11 OE BCL‐2 cell line) | IC50 (MV4;11 cells [3]; alamarBlue) | IC50 (MOLM14 cells; MOLM-14, read-out: IC50 MOLM14 cells) | solubility under the assay conditions [1] | induction of apoptosis compared with venetoclax (MV4;11 cells [4]; MV4;11) | viability at 0.2 µM (MV4;11 cells [4]) | fold less active than venetoclax, MV4;11 cell metabolism/viability (MV4;11 cells [3]; IC50 compared with venetoclax) | decrease in % AnnV‐/7AAD‐ (viable) cells (MV4;11 cells [4]; MV4;11) |
| --- | --- | --- | --- | --- | --- | --- | --- | --- | --- | --- | --- | --- | --- | --- | --- | --- |
| CC1(C)CCC(CN2CCN(c3ccc(C(=O)NS(=O)(=O)c4ccc(NCc5ccc(C(=O)Nc6ccc(-c7cccs7)cc6N)cc5)c([N+](=O)[O-])c4)c(Oc4cnc5[nH]ccc5c4)c3)CC2)=C(c2ccc(Cl)cc2)C1 [AMC‐4‐074, 2‐((1H‐pyrrolo[2,3‐b]pyridin‐5‐yl)oxy)‐N‐((4‐((4‐((2‐amino‐4‐(thiophen‐2‐yl)phenyl)carbamoyl)benzyl)amino)‐3‐nitrophenyl)sulfonyl)‐4‐(4‐((4′‐chloro‐5,5‐dimethyl‐3,4,5,6‐tetrahydro‐[1,1′‐biphenyl]‐2‐yl)methyl)piperazin‐1‐yl)benzamide] |  |  |  |  |  |  |  |  |  |  |  | solubility proved problematic; also recorded: Limited solubility |  |  |  |  |
| CC1(C)CCC(CN2CCN(c3ccc(C(=O)NS(=O)(=O)c4ccc(NCCNc5ncc(C(=O)NO)cn5)c([N+](=O)[O-])c4)c(Oc4cnc5[nH]ccc5c4)c3)CC2)=C(c2ccc(Cl)cc2)C1 [BD‐4‐208, 2‐((2‐((4‐(N‐(2‐((1H‐pyrrolo[2,3‐b]pyridin‐5‐yl)oxy)‐4‐(4‐((4′‐chloro‐5,5‐dimethyl‐3,4,5,6‐tetrahydro‐[1,1′‐biphenyl]‐2‐yl)methyl)piperazin‐1‐yl)benzoyl)sulfamoyl)‐2‐nitrophenyl)amino)ethyl)amino)‐N‐hydroxypyrimidine‐5‐carboxamide] |  | > 10000 nM | 0.463 ± 0.06 µM |  | 149 ± 20 nM | ~ 3 fold |  |  |  |  |  |  |  |  |  |  |
| CC1(C)CCC(CN2CCN(c3ccc(C(=O)NS(=O)(=O)c4ccc(NCCNC(=O)c5ccc(/C=C/C(=O)NO)cc5)c([N+](=O)[O-])c4)c(Oc4cnc5[nH]ccc5c4)c3)CC2)=C(c2ccc(Cl)cc2)C1 [SF‐8‐062, (E)‐2‐((1H‐pyrrolo[2,3‐b]pyridin‐5‐yl)oxy)‐4‐(4‐((4′‐chloro‐5,5‐dimethyl‐3,4,5,6‐tetrahydro‐[1,1′‐biphenyl]‐2‐yl)methyl)piperazin‐1‐yl)‐N‐((4‐((2‐(4‐(3‐(hydroxyamino)‐3‐oxoprop‐1‐en‐1‐yl)benzamido)ethyl)amino)‐3‐nitrophenyl)sulfonyl)benzamide] |  | > 10000 nM | 6.14 ± 1.24 µM |  |  | about 20 fold |  |  |  |  |  |  |  |  |  |  |
| CC1(C)CCC(CN2CCN(c3ccc(C(=O)NS(=O)(=O)c4ccc(NCCNC(=O)c5ccc(C(=O)NO)cc5)c([N+](=O)[O-])c4)c(Oc4cnc5[nH]ccc5c4)c3)CC2)=C(c2ccc(Cl)cc2)C1 [SF‐8‐083, N ^1‐(2‐((4‐(N‐(2‐((1H‐pyrrolo[2,3‐b]pyridin‐5‐yl)oxy)‐4‐(4‐((4′‐chloro‐5,5‐dimethyl‐3,4,5,6‐tetrahydro‐[1,1′‐biphenyl]‐2‐yl)methyl)piperazin‐1‐yl)benzoyl)sulfamoyl)‐2‐nitrophenyl)amino)ethyl)‐N ^4‐hydroxyterephthalamide] |  | > 10000 nM | 11.6 ± 1.76 µM |  | 418 ± 34 nM | ~ 30 fold |  |  |  |  |  |  |  |  |  |  |

Further compounds by falling IC50 (MV4;11 cells [3]; [6]), results first:

| IC50 [2, 5] | IC50 (MV4;11 cells [3]; [6]) | IC50 (HDAC1) | IC50 (BCL‐2) | IC50 (HDAC6) | selectivity for HDAC6 over HDAC1 (HDAC6/1 selectivity) (HDAC6) | IC50 (MOLM14 cells; [7]) | selectivity for HDAC1 over HDAC6 (HDAC1; ratio of IC50 values) | IC50 ([2]; MV4-11, alamarBlue, read-out: IC50 MV4;11 OE BCL‐2 cell line) | IC50 (MV4;11 cells [3]; alamarBlue) | IC50 (MOLM14 cells; MOLM-14, read-out: IC50 MOLM14 cells) | SMILES | solubility under the assay conditions [1] | induction of apoptosis compared with venetoclax (MV4;11 cells [4]; MV4;11) | viability at 0.2 µM (MV4;11 cells [4]) | fold less active than venetoclax, MV4;11 cell metabolism/viability (MV4;11 cells [3]; IC50 compared with venetoclax) | decrease in % AnnV‐/7AAD‐ (viable) cells (MV4;11 cells [4]; MV4;11) |
| --- | --- | --- | --- | --- | --- | --- | --- | --- | --- | --- | --- | --- | --- | --- | --- | --- |
| 2450 ± 96 nM | 285 ± 81 nM | > 30 µM | < 1 nM and 0.617 nM | 368 ± 85 nM | > 80 fold | > 10000 nM |  |  |  |  | CC1(C)CCC(CN2CCN(c3ccc(C(=O)NS(=O)(=O)c4ccc(NCc5ccc(C(=O)NO)cc5)c([N+](=O)[O-])c4)c(Oc4cnc5[nH]ccc5c4)c3)CC2)=C(c2ccc(Cl)cc2)C1 [SF‐8‐038, 2‐((1H‐pyrrolo[2,3‐b]pyridin‐5‐yl)oxy)‐4‐(4‐((4′‐chloro‐5,5‐dimethyl‐3,4,5,6‐tetrahydro‐[1,1′‐biphenyl]‐2‐yl)methyl)piperazin‐1‐yl)‐N‐((4‐((4‐(hydroxycarbamoyl)benzyl)amino)‐3‐nitrophenyl)sulfonyl)benzamide] |  | somewhat less potent | 58.5% | ~ 3 fold |  |
| 1020 ± 177 nM | 82 nM | > 30 µM |  | > 30000 nM |  | 1720 ± 59 nM |  | 1000 nM | 82.8 ± 16.7 nM | 1700 nM | CC1(C)CCC(CN2CCN(c3ccc(C(=O)NS(=O)(=O)c4ccc(NCC5CCOCC5)c([N+](=O)[O-])c4)c(Oc4cnc5[nH]ccc5c4)c3)CC2)=C(c2ccc(Cl)cc2)C1 [Venetoclax, venetoclax, reference compound] |  |  | 49.4% |  | ~ 50% |
| 631 ± 50 nM | 66.2 ± 13.6 nM | > 30 µM | 0.554 ± 0.045 nM | 8710 ± 1890 nM | > 3 fold | > 10000 nM |  |  |  |  | CC1(C)CCC(CN2CCN(c3ccc(C(=O)NS(=O)(=O)c4ccc(NCC5CCN(c6ccc(C(=O)NO)cc6)CC5)c([N+](=O)[O-])c4)c(Oc4cnc5[nH]ccc5c4)c3)CC2)=C(c2ccc(Cl)cc2)C1 [AMC‐4‐154, 2‐((1H‐pyrrolo[2,3‐b]pyridin‐5‐yl)oxy)‐4‐(4‐((4′‐chloro‐5,5‐dimethyl‐3,4,5,6‐tetrahydro‐[1,1′‐biphenyl]‐2‐yl)methyl)piperazin‐1‐yl)‐N‐((4‐(((1‐(4‐(hydroxycarbamoyl)phenyl)piperidin‐4‐yl)methyl)amino)‐3‐nitrophenyl)sulfonyl)benzamide] |  | induced apoptosis similar to venetoclax | 49.2% |  |  |
| 342 ± 55 nM | 19.3 ± 5.6 nM | 2.88 ± 0.57 µM | < 1 nM and 0.539 nM | > 30000 nM |  | 1630 ± 36 nM | > 10 fold |  |  |  | CC1(C)CCC(CN2CCN(c3ccc(C(=O)NS(=O)(=O)c4ccc(NCc5ccc(C(=O)Nc6ccccc6N)cc5)c([N+](=O)[O-])c4)c(Oc4cnc5[nH]ccc5c4)c3)CC2)=C(c2ccc(Cl)cc2)C1 [BD‐4‐213, 2‐((1H‐pyrrolo[2,3‐b]pyridin‐5‐yl)oxy)‐N‐((4‐((4‐((2‐aminophenyl)carbamoyl)benzyl)amino)‐3‐nitrophenyl)sulfonyl)‐4‐(4‐((4′‐chloro‐5,5‐dimethyl‐3,4,5,6‐tetrahydro‐[1,1′‐biphenyl]‐2‐yl)methyl)piperazin‐1‐yl)benzamide] |  | induced apoptosis similar to venetoclax | 43.9% |  |  |
